# What was measured:
# H1650 cells [1] = test: WST-1 Cell Proliferation Assay; assay type: cell-based; conditions: for cell viability (WST-1), words: ritanserin, ketanserin 5-50 μM, staurosporine 1 μM
# Description: (§1) WST-1 Cell Proliferation Assays. Tumor cells were plated in transparent tissue-culture treated 96-well plates at a density of 100,000 cells/mL (A549, H1650) or 200,000 cells/mL (H82) in a volume of 100 μL per well. Cells were treated with dimethyl sulfoxide (DMSO) vehicle or inhibitors dissolved in DMSO at the indicated concentrations (final DMSO concentration of 0.5%). Cells were allowed to grow for indicated times at 37° C. under 5% CO2. Afterwards, equal parts of WST-1 developer reagent and electron mediator solution were mixed and 10 μL of the resulting solution (‘WST-1 reagent’) were added to each well. Plates were shaken in an orbital shaker for 60 s and then returned to the incubator for two hrs. Plates were again shaken followed measurement of absorbance at 450 nm. Data were normalized to DMSO-treated wells and significance values determined with one-way ANOVA.
# A549 cells [2] = test: WST-1 Cell Proliferation Assay; assay type: cell-based; conditions: for cell viability (WST-1), words: ritanserin, ketanserin 5-50 μM, staurosporine 1 μM
# Description: as §1
# H82 cells [3] = test: WST-1 Cell Proliferation Assay; assay type: cell-based; conditions: for cell viability (WST-1), words: ritanserin, ketanserin 5-50 μM, staurosporine 1 μM
# Description: as §1
# H1650 cells [4] = test: CaspaseGlo 3/7 assay; assay type: cell-based; conditions: 24 hours
# Description: (§2) Caspase Glo Assays. Assays were performed as directed by the manufacturer (Promega). Briefly, tumor cells were plated in black tissue-culture treated transparent-bottom 96 well plates at a density of 200,000 cells/mL (A549, H1650) or 400,000 cells/mL (H82) in a volume of 50 μL/well. Cells were treated with inhibitors at the indicated concentrations (final DMSO concentration of 0.5%) for 24 hrs at 37° C. under 5% CO2. Afterwards, 50 μL of the prepared CaspaseGlo reagent was added to each well. The reaction was allowed to proceed at 37° C. under 5% CO2 for 1 hr, at which point the cells were shaken in an orbital shaker at 500 rpm for 60 s and then luminescence was read for each well. Data were normalized to DMSO-treated wells and significance values determined with one-way ANOVA.
# A549 cells [5] = test: CaspaseGlo 3/7 assay; assay type: cell-based; conditions: 24 hours
# Description: as §2
# H82 cells [6] = test: CaspaseGlo 3/7 assay; assay type: cell-based; conditions: 24 hours
# Description: as §2
# CRAF = target: T1, CRAF (Homo sapiens, UniProt P04049); test: ATP acyl phosphate chemical proteomics in lung cancer cell proteomes; assay type: binding; conditions: for CRAF ATP acyl-phosphate labeling response (words, FIG. 20): H82 and HEK293T lysates, 100 μM Rit, 1 mM RF001
# T1 construct: measure selectivity of compounds against native kinases detected in lung cancer proteomes; endogenous in cells; host or cells: H82 small cell lung cancer (and HEK293T) cell lysates; CRAF not detected in A549
# T1 sequence (P04049 whole entry): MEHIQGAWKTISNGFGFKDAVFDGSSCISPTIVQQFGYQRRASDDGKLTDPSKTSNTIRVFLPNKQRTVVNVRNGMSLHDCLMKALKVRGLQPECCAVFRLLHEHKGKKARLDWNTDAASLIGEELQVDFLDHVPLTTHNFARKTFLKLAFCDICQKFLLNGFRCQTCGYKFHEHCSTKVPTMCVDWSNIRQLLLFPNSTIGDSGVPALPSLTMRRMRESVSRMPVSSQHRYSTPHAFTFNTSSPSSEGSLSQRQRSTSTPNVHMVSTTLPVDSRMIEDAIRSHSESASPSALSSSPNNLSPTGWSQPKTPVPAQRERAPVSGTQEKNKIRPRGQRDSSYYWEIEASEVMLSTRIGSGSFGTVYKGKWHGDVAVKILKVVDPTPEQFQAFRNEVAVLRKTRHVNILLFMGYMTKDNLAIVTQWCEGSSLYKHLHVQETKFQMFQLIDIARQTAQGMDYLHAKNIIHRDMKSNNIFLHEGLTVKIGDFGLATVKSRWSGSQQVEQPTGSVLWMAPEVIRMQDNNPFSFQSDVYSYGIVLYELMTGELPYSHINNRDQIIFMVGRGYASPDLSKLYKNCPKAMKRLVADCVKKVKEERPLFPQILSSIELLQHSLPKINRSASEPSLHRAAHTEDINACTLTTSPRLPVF
# Description: (§3) LC-MS analysis of SILAC samples using ATP acyl phosphates. Quantitative chemoproteomics was performed as previously described (Franks et al., 2017; McCloud et al., 2018).
# (§4) Computational Methods. Data for A549 and H82 cell lines were searched with IP2 and manually validated using the methods previously described (Franks et al., 2017). Data for Desthiobiotin-tagged ATP acyl-phosphate probes and ATP competitive peptides were compared and clustered. Ritanserin and ketanserin inhibition profiles were compared using SILAC ratios and normalized to DMSO.
# (§5) Based on previous chemical proteomics (Franks, 2017), it was hypothesized that ritanserin is functioning as a kinase inhibitor to mediate cytotoxicity in the lung cancer cell models. […] For these studies, NSCLC and SCLC cells were cultured in isotopically light and heavy amino acids to enable quantitative chemical proteomics (Chang. 2015) by stable isotope labeling with amino acids in cell culture (SILAC, FIG. 17A). […] After probe labeling, light and heavy proteomes were combined, digested with trypsin protease, and desthiobiotin-modified peptides enriched by avidin affinity chromatography and analyzed by LC-MS/MS to identify and quantify isotopically tagged active-site peptides from native kinases as previously described(Franks, 2017) (FIG. 17A).
# To further confirm that ritanserin is a CRAF inhibitor, a targeted parallel reaction monitoring method (PRM) was developed to evaluate compound activity against CRAF and other members of the RAF family (ARAF and BRAF). Targeted PRM was needed because of the low abundance of CRAF compared with ARAF and BRAF). […] Ritanserin activity was also measured against RAF kinases in A549 proteomes using the targeted LC-MS method. […] The data further support previous findings that this RAF member is enriched in SCLC cells (REF).
# FER = target: T2, FER (Homo sapiens, UniProt P16591); test: as above; assay type: binding; conditions: 100 μM; A549 and H82 proteomes
# T2 construct: measure selectivity of compounds against native kinases detected in lung cancer proteomes; endogenous in cells; host or cells: A549 and H82 lung cancer cell proteomes
# T2 sequence (P16591 whole entry): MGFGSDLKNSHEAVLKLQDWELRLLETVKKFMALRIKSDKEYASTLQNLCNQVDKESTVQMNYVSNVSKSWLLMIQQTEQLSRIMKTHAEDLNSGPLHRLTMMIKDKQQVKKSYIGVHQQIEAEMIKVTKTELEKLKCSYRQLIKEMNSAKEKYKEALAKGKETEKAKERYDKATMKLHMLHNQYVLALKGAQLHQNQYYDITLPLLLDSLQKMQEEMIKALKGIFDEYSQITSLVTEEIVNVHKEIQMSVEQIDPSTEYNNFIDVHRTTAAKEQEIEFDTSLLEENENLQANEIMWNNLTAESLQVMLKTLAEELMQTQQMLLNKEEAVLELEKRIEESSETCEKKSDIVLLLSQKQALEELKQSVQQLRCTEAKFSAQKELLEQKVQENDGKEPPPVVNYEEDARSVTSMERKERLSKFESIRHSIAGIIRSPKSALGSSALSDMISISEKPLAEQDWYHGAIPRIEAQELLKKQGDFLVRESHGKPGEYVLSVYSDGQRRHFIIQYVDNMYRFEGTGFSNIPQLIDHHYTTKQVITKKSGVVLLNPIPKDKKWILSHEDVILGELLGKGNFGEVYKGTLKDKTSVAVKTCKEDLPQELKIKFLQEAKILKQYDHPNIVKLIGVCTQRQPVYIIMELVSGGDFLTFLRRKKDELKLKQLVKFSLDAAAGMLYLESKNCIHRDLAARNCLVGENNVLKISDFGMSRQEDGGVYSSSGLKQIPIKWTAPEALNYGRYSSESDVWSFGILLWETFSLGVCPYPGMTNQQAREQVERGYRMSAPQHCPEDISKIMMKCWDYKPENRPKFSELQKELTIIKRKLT
# Description: as §3, §4, §5
# TLK2 = target: T3, TLK2 (Homo sapiens, UniProt Q86UE8); test: as above; assay type: binding; conditions: 100 μM; A549 and H82 proteomes
# T3 construct: measure selectivity of compounds against native kinases detected in lung cancer proteomes; endogenous in cells; host or cells: A549 and H82 lung cancer cell proteomes
# T3 sequence (Q86UE8 whole entry): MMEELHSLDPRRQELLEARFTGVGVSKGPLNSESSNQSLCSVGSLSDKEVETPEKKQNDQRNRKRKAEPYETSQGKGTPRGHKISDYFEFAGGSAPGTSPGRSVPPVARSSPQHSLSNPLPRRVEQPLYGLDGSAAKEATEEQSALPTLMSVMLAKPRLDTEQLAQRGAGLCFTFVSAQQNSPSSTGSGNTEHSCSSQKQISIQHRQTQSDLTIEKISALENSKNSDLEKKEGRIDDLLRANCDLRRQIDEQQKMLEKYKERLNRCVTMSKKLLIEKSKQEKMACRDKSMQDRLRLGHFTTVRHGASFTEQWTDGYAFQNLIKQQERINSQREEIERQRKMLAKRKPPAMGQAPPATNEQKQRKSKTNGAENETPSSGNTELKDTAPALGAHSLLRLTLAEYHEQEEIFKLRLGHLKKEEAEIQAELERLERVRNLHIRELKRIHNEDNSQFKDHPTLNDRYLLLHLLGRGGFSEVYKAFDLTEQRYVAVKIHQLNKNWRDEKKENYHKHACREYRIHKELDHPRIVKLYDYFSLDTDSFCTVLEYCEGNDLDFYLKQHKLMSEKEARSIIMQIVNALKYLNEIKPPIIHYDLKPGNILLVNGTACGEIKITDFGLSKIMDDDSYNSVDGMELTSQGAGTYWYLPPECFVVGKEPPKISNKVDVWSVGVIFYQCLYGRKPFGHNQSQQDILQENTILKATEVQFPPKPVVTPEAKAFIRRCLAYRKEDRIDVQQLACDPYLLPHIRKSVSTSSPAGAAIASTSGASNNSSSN
# Description: as §3, §4, §5
# [7] = test system: Bone Marrow Derived Macrophages (BMDMs), noncancerous primary cells; test: WST-1 Cell Proliferation Assay; assay type: cell-based; conditions: ritanserin highest concentration tested 50 μM; staurosporine 1 μM
# [8] = humans, cited from earlier work
smiles,measurement,setting,value
O=C(c1ccc(F)cc1)C1CCN(CCn2c(=O)[nH]c3ccccc3c2=O)CC1 [Ketanserin],"cell viability (WST-1), words",H1650 cells [1],lack of activity
same,"cell viability (WST-1), words",A549 cells [2],lack of activity
same,"cell viability (WST-1), words",H82 cells [3],lack of activity
same,caspase 3/7 activity,H1650 cells [4],did not induce these effects
same,caspase 3/7 activity,A549 cells [5],did not induce these effects
same,caspase 3/7 activity,H82 cells [6],did not induce these effects
"Fc1ccc(C(=C2CCNCC2)c2ccc(F)cc2)cc1 [RF001, 4-(Bis(4-fluorophenyl)methylene) piperidine]","CRAF ATP acyl-phosphate labeling response (words, FIG. 20)",CRAF,inactivates CRAF
Cc1nc2sccn2c(=O)c1CCN1CCC(=C(c2ccc(F)cc2)c2ccc(F)cc2)CC1 [Ritanserin],cell death (WST-1),"H1650 cells [1]; 5 μM, two days",5-15%
same,cell death after 1 day (WST-1),"H1650 cells [1]; 25 μM, 1 day",> 50%
same,inhibition at 25 µM,"H1650 cells [1]; Homo sapiens, NCI-H1650, 48 h, 25 μM, two days, read-out: inhibition of cell growth (WST-1)",> 70%
same,"cell viability (WST-1), words",H1650 cells [1],Concentration-dependent decreases in viability
same,cell death (WST-1),"A549 cells [2]; 5 μM, two days",5-15%
same,cell death after 1 day (WST-1),"A549 cells [2]; 25 μM, 1 day",> 50%
same,inhibition at 25 µM,"A549 cells [2]; Homo sapiens, A549, 48 h, 25 μM, two days, read-out: inhibition of cell growth (WST-1)",> 70%
same,"cell viability (WST-1), words",A549 cells [2],Concentration-dependent decreases in viability
same,cell death (WST-1),"H82 cells [3]; 5 μM, two days",~50%
same,cell death after 1 day (WST-1),"H82 cells [3]; 25 μM, 1 day",> 50%
same,inhibition at 25 µM,"H82 cells [3]; Homo sapiens, NCI-H82, 48 h, 25 μM, two days, read-out: inhibition of cell growth (WST-1)",> 70%
same,"cell viability (WST-1), words",H82 cells [3],Concentration-dependent decreases in viability
same,kinase target by SILAC ratio criterion,"CRAF; 100 μM, A549 and H82 proteomes",most potent targets
same,"CRAF ATP acyl-phosphate labeling response (words, FIG. 20)",CRAF,inactivates CRAF
same,activity by targeted PRM,CRAF; H82 proteomes,potent activity against CRAF
same,caspase 3/7 activity,H1650 cells [4],comparable activation of caspase 3/7 compared with staurosporine
same,caspase 3/7 activity,A549 cells [5],lower degree of activation
same,caspase 3/7 activity,H82 cells [6],comparable activation of caspase 3/7 compared with staurosporine
same,kinase target by SILAC ratio criterion,FER,most potent targets
same,kinase target by SILAC ratio criterion,TLK2,most potent targets
same,"cell killing of noncancerous primary cells (WST-1), words",[7],negligible cell killing
same,adverse side effects,[8],lack of adverse side effects
same,half-life,[8]; oral,~40 h

# From patent US12643867B2, “Compositions and uses thereof” (University of Virginia Patent Foundation, priority 2017, dated 2026)
